{
  "source": "ChEMBL document CHEMBL1201862",
  "about": "“PubChem BioAssay data set” (2004)",
  "key": {"[1]": {"molecular_target": "Lysine-specific demethylase 4C (Homo sapiens, UniProt Q9H3R0)", "sequence (Q9H3R0 whole entry)": "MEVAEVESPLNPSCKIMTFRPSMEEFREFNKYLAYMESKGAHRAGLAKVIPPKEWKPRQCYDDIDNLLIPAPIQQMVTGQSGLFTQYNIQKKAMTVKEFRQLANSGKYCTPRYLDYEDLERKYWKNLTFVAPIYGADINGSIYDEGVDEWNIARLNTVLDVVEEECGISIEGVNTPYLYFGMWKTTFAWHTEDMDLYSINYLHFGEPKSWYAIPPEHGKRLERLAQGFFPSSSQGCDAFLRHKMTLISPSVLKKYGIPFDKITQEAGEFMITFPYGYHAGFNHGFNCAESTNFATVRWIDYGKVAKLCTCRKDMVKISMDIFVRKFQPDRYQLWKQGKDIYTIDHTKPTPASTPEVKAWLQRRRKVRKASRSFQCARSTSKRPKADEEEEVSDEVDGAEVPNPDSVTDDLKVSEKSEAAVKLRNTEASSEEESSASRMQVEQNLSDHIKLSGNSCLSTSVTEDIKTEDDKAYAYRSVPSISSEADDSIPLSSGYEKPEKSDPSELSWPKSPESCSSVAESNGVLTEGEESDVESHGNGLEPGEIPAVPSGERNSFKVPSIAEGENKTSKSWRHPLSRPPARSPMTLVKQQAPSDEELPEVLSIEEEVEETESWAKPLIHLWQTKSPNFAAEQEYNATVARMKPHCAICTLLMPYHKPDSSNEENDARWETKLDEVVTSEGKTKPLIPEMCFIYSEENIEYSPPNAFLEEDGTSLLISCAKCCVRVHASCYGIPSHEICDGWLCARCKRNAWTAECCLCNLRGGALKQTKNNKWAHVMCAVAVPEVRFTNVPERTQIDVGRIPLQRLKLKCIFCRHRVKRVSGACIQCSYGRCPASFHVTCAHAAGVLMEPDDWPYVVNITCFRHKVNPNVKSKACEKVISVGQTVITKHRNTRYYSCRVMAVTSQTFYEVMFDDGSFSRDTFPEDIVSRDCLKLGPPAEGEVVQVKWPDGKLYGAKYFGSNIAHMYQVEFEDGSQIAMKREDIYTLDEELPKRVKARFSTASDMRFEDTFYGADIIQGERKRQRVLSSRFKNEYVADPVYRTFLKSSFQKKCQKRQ", "experiment": "inhibition of JMJD2C H3K9me3 demethylation – biochemical, DELFIA europium, cherry-picked samples, dose response (AID 488835)", "assay_type": "functional"}, "[2]": {"molecular_target": "T1, Nucleotide-binding oligomerization domain-containing protein 1 (Homo sapiens, UniProt Q9Y239)", "T1 sequence (Q9Y239 whole entry)": "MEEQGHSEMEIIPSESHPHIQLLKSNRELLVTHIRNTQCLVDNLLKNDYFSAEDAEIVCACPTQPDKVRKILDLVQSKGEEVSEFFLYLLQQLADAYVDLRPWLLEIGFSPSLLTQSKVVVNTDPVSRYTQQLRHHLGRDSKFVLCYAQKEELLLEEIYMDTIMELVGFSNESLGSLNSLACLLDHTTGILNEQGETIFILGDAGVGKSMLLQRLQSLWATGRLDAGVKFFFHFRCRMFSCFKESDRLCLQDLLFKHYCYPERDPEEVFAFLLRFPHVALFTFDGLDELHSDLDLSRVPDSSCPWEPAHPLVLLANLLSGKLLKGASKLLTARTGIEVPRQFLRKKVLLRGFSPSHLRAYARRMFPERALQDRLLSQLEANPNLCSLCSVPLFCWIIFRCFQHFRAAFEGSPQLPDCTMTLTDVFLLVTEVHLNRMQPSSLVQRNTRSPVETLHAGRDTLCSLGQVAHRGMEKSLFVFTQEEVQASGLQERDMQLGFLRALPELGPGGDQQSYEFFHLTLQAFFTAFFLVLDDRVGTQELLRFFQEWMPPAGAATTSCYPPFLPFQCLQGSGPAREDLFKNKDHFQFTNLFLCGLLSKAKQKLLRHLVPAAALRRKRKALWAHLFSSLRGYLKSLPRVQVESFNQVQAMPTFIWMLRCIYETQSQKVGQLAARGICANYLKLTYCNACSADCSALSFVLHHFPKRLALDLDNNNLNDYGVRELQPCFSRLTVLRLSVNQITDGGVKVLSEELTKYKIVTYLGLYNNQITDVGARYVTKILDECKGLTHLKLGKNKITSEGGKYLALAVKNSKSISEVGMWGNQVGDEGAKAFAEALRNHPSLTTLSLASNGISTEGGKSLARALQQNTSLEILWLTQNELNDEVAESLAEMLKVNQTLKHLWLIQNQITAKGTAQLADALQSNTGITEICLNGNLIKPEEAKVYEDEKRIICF", "experiment": "SAR analysis of compounds that inhibit NOD1 - Set 3. [Related pubchem assays (depositor defined):AID1566, AID1575, AID1578, AID1849, AID1852, AID2333, AID2335, AID2466]", "assay_type": "functional"}, "HEK293 [3]": {"test_system": "HEK293", "experiment": "SAR analysis of compounds that are cytotoxic to HEK293 - Set 3. [Related pubchem assays (depositor defined):AID1575, AID1578, AID1848, AID1849, AID2001, AID2333, AID2334, AID2335, AID2337, AID2469]", "assay_type": "functional, cell-based", "settings": "Homo sapiens"}, "[4]": {"molecular_target": "T1, Nucleotide-binding oligomerization domain-containing protein 1", "experiment": "SAR analysis of NF-kappaB dependent luciferase using DAP as an inducer - Set 2. [Related pubchem assays (depositor defined):AID1566, AID1575, AID1578, AID1579, AID1849, AID1852, AID2264]", "assay_type": "functional"}, "HEK293 [5]": {"test_system": "HEK293", "experiment": "SAR analysis of compounds that are cytotoxic to HEK293 - Set 2. [Related pubchem assays (depositor defined):AID1575, AID1578, AID1849, AID2001, AID2333, AID2334, AID2335, AID2337, AID2800]", "assay_type": "functional, cell-based", "settings": "Homo sapiens"}, "Tumor necrosis factor": {"molecular_target": "Tumor necrosis factor (Homo sapiens, UniProt P01375)", "sequence (P01375 whole entry)": "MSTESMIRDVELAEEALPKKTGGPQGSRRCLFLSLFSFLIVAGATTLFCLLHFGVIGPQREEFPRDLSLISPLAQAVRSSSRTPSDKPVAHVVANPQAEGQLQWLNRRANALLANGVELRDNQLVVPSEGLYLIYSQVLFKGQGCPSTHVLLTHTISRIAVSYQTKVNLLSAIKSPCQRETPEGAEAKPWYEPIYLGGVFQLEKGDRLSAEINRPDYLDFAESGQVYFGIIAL", "experiment": "analog potency on TNFa NF-kB signaling – cell-based, set 3, SAR follow-up (AID 2801)", "assay_type": "functional"}, "[6]": {"molecular_target": "T1, Nucleotide-binding oligomerization domain-containing protein 1", "experiment": "SAR analysis of compounds that inhibit NOD1 - Set 2. [Related pubchem assays (depositor defined):AID1566, AID1575, AID1578, AID1849, AID1852, AID2333, AID2335, AID2798]", "assay_type": "functional"}, "Interleukin-8 [7]": {"molecular_target": "T2, Interleukin-8 (Homo sapiens, UniProt P10145)", "T2 sequence (P10145 whole entry)": "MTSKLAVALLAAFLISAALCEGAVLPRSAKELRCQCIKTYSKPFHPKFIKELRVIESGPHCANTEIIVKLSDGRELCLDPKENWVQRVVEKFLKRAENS", "experiment": "SAR analysis of GM-Tri-DAP induced IL-8 secretion in MCF-7/NOD1 cells - Set 2. [Related pubchem assays (depositor defined):AID1575, AID1578, AID2333]", "assay_type": "functional, cell-based"}, "[8]": {"molecular_target": "T3, Nucleotide-binding oligomerization domain-containing protein 2 (Homo sapiens, UniProt Q9HC29)", "T3 sequence (Q9HC29 whole entry, the tested form may be a part)": "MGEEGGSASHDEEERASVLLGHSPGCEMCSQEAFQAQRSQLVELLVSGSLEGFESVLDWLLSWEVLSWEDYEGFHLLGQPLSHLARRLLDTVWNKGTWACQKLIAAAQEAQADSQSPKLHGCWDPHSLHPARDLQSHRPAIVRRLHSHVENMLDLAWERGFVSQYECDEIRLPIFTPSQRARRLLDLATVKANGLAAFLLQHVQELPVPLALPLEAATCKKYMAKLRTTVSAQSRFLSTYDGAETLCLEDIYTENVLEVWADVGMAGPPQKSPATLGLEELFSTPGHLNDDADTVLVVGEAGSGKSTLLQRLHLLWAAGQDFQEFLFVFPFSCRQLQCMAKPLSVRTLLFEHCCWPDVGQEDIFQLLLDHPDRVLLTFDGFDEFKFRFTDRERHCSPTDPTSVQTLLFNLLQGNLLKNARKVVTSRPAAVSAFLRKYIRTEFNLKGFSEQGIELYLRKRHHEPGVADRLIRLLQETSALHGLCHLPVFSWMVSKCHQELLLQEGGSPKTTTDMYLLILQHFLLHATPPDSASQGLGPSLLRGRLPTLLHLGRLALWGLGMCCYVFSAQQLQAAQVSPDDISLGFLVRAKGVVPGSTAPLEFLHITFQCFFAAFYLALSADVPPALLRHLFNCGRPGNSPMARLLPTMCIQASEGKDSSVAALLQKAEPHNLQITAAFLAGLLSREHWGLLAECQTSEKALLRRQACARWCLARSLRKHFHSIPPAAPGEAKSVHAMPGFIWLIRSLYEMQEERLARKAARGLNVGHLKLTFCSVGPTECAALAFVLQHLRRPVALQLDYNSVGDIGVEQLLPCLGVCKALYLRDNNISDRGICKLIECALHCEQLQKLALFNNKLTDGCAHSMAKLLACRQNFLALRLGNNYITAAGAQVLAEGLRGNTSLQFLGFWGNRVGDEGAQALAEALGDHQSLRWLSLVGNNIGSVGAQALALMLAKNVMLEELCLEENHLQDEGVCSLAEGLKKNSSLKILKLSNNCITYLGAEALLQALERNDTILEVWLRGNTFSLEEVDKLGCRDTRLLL", "experiment": "inhibition of MDP-driven NOD2 NF-kB reporter – cell-based, set 3, SAR follow-up (AID 2799)", "assay_type": "functional"}, "[9]": {"molecular_target": "T3, Nucleotide-binding oligomerization domain-containing protein 2", "experiment": "inhibition of NOD2 signaling – set 2, SAR follow-up (AID 2475)", "assay_type": "functional"}, "Interleukin-8 [10]": {"molecular_target": "T2, Interleukin-8", "experiment": "SAR analysis of Tumor necrosis factor alpha (TNF-alpha) induced IL-8 secretion in MCF-7/NOD1 cells - Set 2. [Related pubchem assays (depositor defined):AID1575, AID2250, AID2260]", "assay_type": "functional, cell-based"}, "cells": {"experiment": "cells", "assay_type": "functional, cell-based", "settings": "HEK-CNG"}, "Galanin receptor type 3": {"molecular_target": "Galanin receptor type 3 (Homo sapiens, UniProt O60755)", "sequence (O60755 whole entry)": "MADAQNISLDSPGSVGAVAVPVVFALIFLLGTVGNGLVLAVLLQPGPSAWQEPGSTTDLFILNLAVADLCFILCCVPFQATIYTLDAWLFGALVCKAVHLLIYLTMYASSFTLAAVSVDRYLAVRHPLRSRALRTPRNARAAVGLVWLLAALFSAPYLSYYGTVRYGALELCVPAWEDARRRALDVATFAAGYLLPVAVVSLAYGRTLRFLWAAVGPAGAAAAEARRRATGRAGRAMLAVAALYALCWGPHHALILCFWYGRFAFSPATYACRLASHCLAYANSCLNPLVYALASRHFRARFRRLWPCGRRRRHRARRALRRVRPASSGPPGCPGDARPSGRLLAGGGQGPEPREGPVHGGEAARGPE", "experiment": "Fluorescence-based cell-based primary high throughput dose response assay to identify antagonists of the Galanin Receptor 3 (GalR3).", "assay_type": "functional"}, "Galanin receptor type 2": {"molecular_target": "Galanin receptor type 2 (Homo sapiens, UniProt O43603)", "sequence (O43603 whole entry)": "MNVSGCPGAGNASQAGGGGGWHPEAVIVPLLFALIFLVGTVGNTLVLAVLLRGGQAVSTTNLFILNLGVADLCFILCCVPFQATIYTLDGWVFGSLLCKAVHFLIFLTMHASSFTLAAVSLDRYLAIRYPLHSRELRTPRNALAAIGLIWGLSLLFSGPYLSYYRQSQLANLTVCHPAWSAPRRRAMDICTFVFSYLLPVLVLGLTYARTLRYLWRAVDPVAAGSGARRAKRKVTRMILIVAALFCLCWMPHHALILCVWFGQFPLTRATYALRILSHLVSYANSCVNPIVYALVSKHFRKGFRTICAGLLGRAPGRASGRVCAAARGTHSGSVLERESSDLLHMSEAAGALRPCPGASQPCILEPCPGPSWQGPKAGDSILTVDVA", "experiment": "Dose Response cell-based high-throughput screening assay to identify antagonists of galanin receptor 2 (GALR2). [Related pubchem assays: 828, 866 ]", "assay_type": "functional"}, "INS1": {"test_system": "INS1", "experiment": "INS-1E survival protection against cytokine death – cell-based, luminescence, retest, dose response (AID 449756);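 further: cell death triggered by IL-1 beta plus TNF-alpha plus IFN-gamma mixture; protective hits raise ATP signal compared with cytokine alone wells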", "assay_type": "functional", "settings": "Rattus norvegicus"}, "Jurkat": {"test_system": "Jurkat", "experiment": "blockers of NF-kB activation in T cells – Jurkat, luciferase reporter, luminescence, B- and T-cell, dose response (AID 489004);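 further: NF-kB luciferase reporter Jurkat cells stimulated with PMA plus ionomycin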", "assay_type": "functional, cell-based", "settings": "Homo sapiens"}, "[11]": {"experiment": "HEK-293T viability loss, compound-treated – cell-based, uHTS hits, cytotoxicity control for B/T-cell NF-kB inhibitor project, dose response (AID 489019);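 further: IC50 reflects cytotoxicity as loss of cell viability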", "assay_type": "functional"}, "Escherichia coli": {"test_system": "Escherichia coli", "experiment": "microbe, parasite or virus in culture"}},
  "note": "Activity calls are given as the source filed them.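 Wherever EC50 is given: target is galanin receptor GalR3 read with a cAMP biosensor in HEK293 cells.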",
  "data": [
    {"smiles": "Nc1c(O)nc(O)nc1C(=O)OCC(=O)Nc1ccc(Cl)cc1[N+](=O)[O-]", "values": [
      {"measurement": "AC50", "setting": "[1]", "result": "8.98 µM (active)"}
    ]},
    {"smiles": "COCCn1c(SCCCc2ccccc2)nc2c1c(=O)[nH]c(=O)n2C", "values": [
      {"measurement": "IC50", "setting": "[2]", "result": "> 20 µM (inactive)"},
      {"measurement": "IC50", "setting": "HEK293 [3]", "result": "> 20 µM (inactive)"},
      {"measurement": "IC50", "setting": "[4]", "result": "> 25 µM (inactive)"},
      {"measurement": "IC50", "setting": "HEK293 [5]", "result": "> 20 µM (inactive)"},
      {"measurement": "IC50", "setting": "Tumor necrosis factor", "result": "> 20 µM (inactive)"},
      {"measurement": "IC50", "setting": "[6]", "result": "> 20 µM (inactive)"},
      {"measurement": "IC50", "setting": "Interleukin-8 [7]", "result": "> 25 µM (inactive)"},
      {"measurement": "IC50", "setting": "[8]", "result": "> 20 µM (inactive)"},
      {"measurement": "IC50", "setting": "[9]", "result": "> 20 µM (inactive)"},
      {"measurement": "IC50", "setting": "Interleukin-8 [10]", "result": "> 25 µM (inactive)"}
    ]},
    {"smiles": "Cn1nc(C(C)(C)C)cc1C(=O)NCc1ccc(N2CCCC2=O)cc1", "values": [
      {"measurement": "EC50", "setting": "cells", "result": "> 29.9 µM (inactive)"},
      {"measurement": "IC50", "setting": "Galanin receptor type 3", "result": "1.13 µM (active)"},
      {"measurement": "IC50", "setting": "Galanin receptor type 2", "result": "> 42 µM (not active)"},
      {"measurement": "AC50", "setting": "INS1", "result": "2.85 µM (active)"},
      {"measurement": "IC50", "setting": "Jurkat", "result": "> 80 µM (inactive)"},
      {"measurement": "IC50", "setting": "[11]", "result": "> 80 µM (inactive)"}
    ]},
    {"smiles": "CC(=O)N1Cc2cc([N+](=O)[O-])ccc2Oc2ccccc21", "values": [
      {"measurement": "AC50", "setting": "Escherichia coli", "result": "28.5 µM (active)"}
    ]}
  ]
}
